Our source for the IC50 values is US10954214B2 (Janssen Pharmaceutica NV, priority 2016, dated 2021).

The structures appear in SMILES notation. Where only a bound is given, the exact number is not on record here.

A word on the IC50: it is the concentration at which inhibition is half-maximal.

Assay [1] concerns IL10 secretion by TMD8 ABC-DLBCL cells. Put plainly: Human IL10 Mesoscale assay (TMD-8). In kind it is cell-based. The conditions noted are these: Homo sapiens, TMD8; TMD-8 cells, 24 h. As for the experimental part:
(§1) NFKB signaling regulates the secretion of multiple cytokines, including IL6 and IL10. Secretion of the cytokines IL6 and IL10 by TMD8 or OCI-LY3 ABC-DLBCL cells was measured using a mesoscale assay. Inhibition of NFKB signaling by MALT1 or BTK inhibitors results in a decrease of IL6/10 secretion.
(§2) TMD8 or OCI-LY3 cells were propagated in RPMI-1640 (Sigma Aldrich) supplemented with 10% fetal bovine serum (HyClone), 1 mM sodium pyruvate (Invitrogen), 2 mM L-glutamine (Sigma Aldrich) and 1% PenStrep (Sigma Aldrich). Cell passage number should not exceed 30. Cells should be kept between 0.5-2.5 million cells per mL during culturing and cells should be supplemented every 2-3 days with fresh 50 μM beta-mercaptoenthanol. No beta-mercaptoethanol was used during the mesoscale assay.
(§3) For the Mesoscale assay, 100,000 TMD8 or OCI-LY3 cells were seeded per well into black-colored 96-well plates with clear bottom (Corning #3904) and test compounds were added in 9 dilution steps (1:2) ranging from 15 μM to 58.6 nM (final DMSO concentration 0.3%). DMSO control wells were used to determine the maximum signal (High Control (HC)). Treatment with the BTK inhibitor RN486 in a dose range from 30 nM to 131 pM (9 dilutions of 1:2) served as a positive control for NFKB pathway inhibition and was used to determine the maximum inhibition (Low Control (LC)). Compounds and cells were incubated for 24 h at 37° C. and 5% CO2 (assay volume is 150 μL). After 24 h of incubation 50 μL of the supernatant was transferred to a MSD plate (V-Plex Proinflammation Panel 1 (human) kit, Mesoscale (MSD)) and incubated for 2 h with vigorous shaking (600 rpm) at room temperature. Following incubation, plates were washed 3× with PBS+0.05% Tween-20 and 25 μL detection antibody solution (IL6 & IL10 antibodies in diluent 3 (MSD)) was added per well followed by 2 h of incubation with vigorous shaking (600 rpm) at room temperature. After 3× washes with PBS+0.05% Tween-20, plates were incubated with 150 μL 2× Read Buffer T and read on SECTOR imager.

The subject of assay [2] is IL6 secretion by TMD8 ABC-DLBCL cells. As to the kind of experiment: Human IL6 Mesoscale assay (TMD-8). It is filed as cell-based. The conditions noted are these: Homo sapiens, TMD8; TMD-8 cells, 24 h. As for the experimental part:
as §1, §2, §3

The target of assay [3] is full-length MALT1 protein (Strep-MALT1(1-824)-His) (Homo sapiens (Human), UniProt Q9UDY8). As to the kind of experiment: MALT1 Biochemical Protease Assay (Ac-LRSR-AMC substrate). The conditions noted are these: 10 nM FL MALT1, 200 μM Ac-LRSR-AMC, 4 h at RT; read-out: MALT1_Biochemical activity (Ac-LRSR-amc) IC50. As for the experimental part:
The tetrapeptide LRSR is coupled to AMC (7-amino-4-methylcoumarin) and provides a quenched, fluorescent substrate for the MALT1 protease (SM Biochemicals). […] Test compound concentrations ranged from 30 μM to 0.5 nM using 11 dilution steps (1:3). Background signal was measured from control wells containing assay buffer without enzyme which functions as low control (LC). High control (HC) values were generated using the reaction with enzyme but no compound treatment. Compounds were pre-incubated with MALT1 enzyme for 50 minutes at RT. […] The reaction was subsequently incubated for 4 h at RT and fluorescence was measured.
LC=Median of the low control values
An estimate of the slope of the plot in terms of the Hill coefficient was also obtained. IC50 Calculation:
[formula] With • UB=upper bound • LB=lower bound Used in “Lexis Dose Response Curve Fitting” Version 1.0.

Sequence of full-length MALT1 protein (Strep-MALT1(1-824)-His) (Q9UDY8 whole entry): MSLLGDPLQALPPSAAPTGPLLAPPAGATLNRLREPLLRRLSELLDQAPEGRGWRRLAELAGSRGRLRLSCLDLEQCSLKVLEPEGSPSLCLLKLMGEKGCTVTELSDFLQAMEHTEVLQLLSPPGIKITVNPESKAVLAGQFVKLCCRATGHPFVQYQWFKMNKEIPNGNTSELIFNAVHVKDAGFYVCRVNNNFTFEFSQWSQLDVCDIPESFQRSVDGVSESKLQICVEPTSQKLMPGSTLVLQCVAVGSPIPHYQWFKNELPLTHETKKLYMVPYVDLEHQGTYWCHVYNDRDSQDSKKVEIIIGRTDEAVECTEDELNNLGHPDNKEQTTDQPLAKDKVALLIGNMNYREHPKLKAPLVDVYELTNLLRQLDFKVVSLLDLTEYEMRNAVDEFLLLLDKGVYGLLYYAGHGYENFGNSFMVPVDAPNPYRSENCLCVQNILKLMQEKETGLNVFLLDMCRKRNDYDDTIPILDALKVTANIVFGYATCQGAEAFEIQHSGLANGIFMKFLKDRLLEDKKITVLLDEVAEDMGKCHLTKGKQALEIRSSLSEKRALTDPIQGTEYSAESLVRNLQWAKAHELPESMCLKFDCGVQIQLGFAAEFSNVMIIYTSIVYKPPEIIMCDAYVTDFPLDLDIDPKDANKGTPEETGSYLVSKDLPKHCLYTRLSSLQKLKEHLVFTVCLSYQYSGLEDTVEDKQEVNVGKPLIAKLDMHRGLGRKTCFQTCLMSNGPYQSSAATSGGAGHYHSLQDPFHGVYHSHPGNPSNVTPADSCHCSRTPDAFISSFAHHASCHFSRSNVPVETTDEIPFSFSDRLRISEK

On to `O=C(Nc1cnc(-n2nccn2)c(Cl)c1)c1cnn(-c2cccc3nc([C@H]4CCCO4)ccc23)c1C(F)(F)F` (single isomer, unassigned) [Cpd 440, (*R)—N-(5-chloro-6-(2H-1,2,3-triazol-2-yl)pyridin-3-yl)-1-(2-(tetrahydrofuran-2-yl)quinolin-5-yl)-5-(trifluoromethyl)-1H-pyrazole-4-carboxamide], for which the IC50 in assay [1] stood at 162 nM; in assay [2], 186 nM; in assay [3] it was 1580 nM.

Consider `C[C@H](O)c1ncc(-n2ncc(C(=O)Nc3cnc(-n4nccn4)c(Cl)c3)c2C(F)(F)F)c2ccccc12` (single isomer, unassigned) [Cpd 443, (*S)—N-(5-chloro-6-(2H-1,2,3-triazol-2-yl)pyridin-3-yl)-1-(1-(1-hydroxyethyl)isoquinolin-4-yl)-5-(trifluoromethyl)-1H-pyrazole-4-carboxamide], for which the IC50 in assay [1] was 50 nM; in assay [2], 46 nM; in assay [3], 13 nM.

Consider `O=C(Nc1cnc(-c2ncco2)c(Cl)c1)c1cnn(-c2cccc3ncccc23)c1C(F)(F)F` [Cpd 91, N-(5-chloro-6-(oxazol-2-yl)pyridin-3-yl)-1-(quinolin-5-yl)-5-(trifluoromethyl)-1H-pyrazole-4-carboxamide], for which the IC50 stood at 155 nM in assay [1], 151 nM in assay [2] and 15 nM in assay [3].

As to `N#Cc1cc(NC(=O)c2cnn(-c3ccnc4c(F)cccc34)c2C(F)(F)F)cnc1-n1nccn1` [Cpd 92, N-(5-cyano-6-(2H-1,2,3-triazol-2-yl)pyridin-3-yl)-1-(8-fluoroquinolin-4-yl)-5-(trifluoromethyl)-1H-pyrazole-4-carboxamide], the values for the IC50 in assay [1], in assay [2] and in assay [3] were 132 nM, 102 nM and 19 nM, respectively.

For the compound `N#Cc1cc(NC(=O)c2cnn(-c3cnnc4ccccc34)c2C(F)(F)F)cnc1-n1nccn1` [Cpd 93, 1-(Cinnolin-4-yl)-N-(5-cyano-6-(2H-1,2,3-triazol-2-yl)pyridin-3-yl)-5-(trifluoromethyl)-1H-pyrazole-4-carboxamide], the IC50 in assay [1] came to 501 nM; in assay [2] it was 447 nM; in assay [3], 60 nM.

Take `N#Cc1cc(NC(=O)c2cnn(-c3nccc4occc34)c2C(F)(F)F)cnc1-n1nccn1` [Cpd 94, N-(5-cyano-6-(2H-1,2,3-triazol-2-yl)pyridin-3-yl)-1-(furo[3,2-c]pyridin-4-yl)-5-(trifluoromethyl)-1H-pyrazole-4-carboxamide]: the IC50 in assay [1] amounted to 105 nM; in assay [2] it was 89 nM; in assay [3] it was 19 nM.

Turning to `N#Cc1cc(NC(=O)c2cnn(-c3nncc4ccccc34)c2C(F)(F)F)cnc1-n1nccn1` [Cpd 102, N-(5-cyano-6-(2H-1,2,3-triazol-2-yl)pyridin-3-yl)-1-(phthalazin-1-yl)-5-(trifluoromethyl)-1H-pyrazole-4-carboxamide], the IC50 in assay [1] was determined as 186 nM; in assay [2], 110 nM; in assay [3], 42 nM.

On to `N#Cc1cc(NC(=O)c2cnn(-c3nccn4ccnc34)c2C(F)(F)F)cnc1-n1nccn1` [Cpd 103, N-(5-Cyano-6-(2H-1,2,3-triazol-2-yl)pyridin-3-yl)-1-(imidazo[1,2-a]pyrazin-8-yl)-5-(trifluoromethyl)-1H-pyrazole-4-carboxamide], for which the IC50 in assay [1] is more than 15000 nM; in assay [2], more than 15000 nM; in assay [3], 1510 nM.

As for `O=C(Nc1cnc(-c2ncc[nH]2)c(Cl)c1)c1cnn(-c2cncc3ccccc23)c1C(F)(F)F` [Cpd 104, N-(5-chloro-6-(1H-imidazol-2-yl)pyridin-3-yl)-1-(isoquinolin-4-yl)-5-(trifluoromethyl)-1H-pyrazole-4-carboxamide], the IC50 was more than 15000 nM in assay [1], more than 15000 nM in assay [2] and 204 nM in assay [3].

`N#Cc1cc(NC(=O)c2cnn(-c3cccc4nccnc34)c2C(F)(F)F)cnc1-n1nccn1` [Cpd 105, N-(5-Cyano-6-(2H-1,2,3-triazol-2-yl)pyridin-3-yl)-1-(quinoxalin-5-yl)-5-(trifluoromethyl)-1H-pyrazole-4-carboxamid]: the IC50 in assay [1] is 813 nM; in assay [2], 851 nM; in assay [3] it was 58 nM.

On to `O=C(Nc1cnc(OC(F)F)c(Cl)c1)c1cnn(-c2cncc3ccccc23)c1C(F)(F)F` [Cpd 106, N-(5-chloro-6-(difluoromethoxy)pyridin-3-yl)-1-(isoquinolin-4-yl)-5-(trifluoromethyl)-1H-pyrazole-4-carboxamide], for which the IC50 in assay [1] worked out at 617 nM; in assay [2] it was 1260 nM; in assay [3], 447 nM.

On to `O=C(Nc1cnc(N2CCCC2=O)c(Cl)c1)c1cnn(-c2cncc3ccccc23)c1C(F)(F)F` [Cpd 107, N-(5-chloro-6-(2-oxopyrrolidin-1-yl)pyridin-3-yl)-1-(isoquinolin-4-yl)-5-(trifluoromethyl)-1H-pyrazole-4-carboxamide], for which the values for the IC50 in assay [1], in assay [2] and in assay [3] were 1180 nM, 3470 nM and 1290 nM, respectively.

As to `Cc1cc2nccc(-n3ncc(C(=O)Nc4cnc(-n5nccn5)c(C#N)c4)c3C(F)(F)F)c2o1` [Cpd 151, N-(5-cyano-6-(2H-1,2,3-triazol-2-yl)pyridin-3-yl)-1-(2-methylfuro[3,2-b]pyridin-7-yl)-5-(trifluoromethyl)-1H-pyrazole-4-carboxamide], the values for the IC50 in assay [1], in assay [2] and in assay [3] were 200 nM, 224 nM and 214 nM, respectively.

As to `N#Cc1cc(NC(=O)c2cnn(-c3cccc4nc(N)nn34)c2C(F)(F)F)cnc1-n1nccn1` [Cpd 159, 1-(2-amino-[1,2,4]triazolo[1,5-a]pyridin-5-yl)-N-(5-cyano-6-(2H-1,2,3-triazol-2-yl)pyridin-3-yl)-5-(trifluoromethyl)-1H-pyrazole-4-carboxamide], the concentration for half-maximal inhibition (IC50) in assay [1] was 955 nM; in assay [2], more than 15100 nM; in assay [3], 105 nM.

For the compound `O=C(Nc1cnc(-n2nccn2)c(Cl)c1)c1c(F)nn(-c2cccc3ncccc23)c1C(F)(F)F` [Cpd 160, N-(5-chloro-6-(2H-1,2,3-triazol-2-yl)pyridin-3-yl)-3-fluoro-1-(quinolin-5-yl)-5-(trifluoromethyl)-1H-pyrazole-4-carboxamide], the results for the IC50 in assay [1], in assay [2] and in assay [3] were 93 nM, 95 nM and 389 nM, respectively.

For `Cc1cc(NC(=O)c2cnn(-c3cccc4c(=O)[nH]ccc34)c2C(F)(F)F)c(C)nc1-n1nccn1` [Cpd 161, N-(2,5-dimethyl-6-(2H-1,2,3-triazol-2-yl)pyridin-3-yl)-1-(1-oxo-1,2-dihydroisoquinolin-5-yl)-5-(trifluoromethyl)-1H-pyrazole-4-carboxamide], the IC50 in assay [1] was more than 15100 nM; in assay [2], more than 15100 nM; in assay [3] it was 282 nM.

As for `Cc1nc(-n2cccn2)c(Cl)cc1NC(=O)c1cnn(-c2cccc3c(=O)[nH]ccc23)c1C(F)(F)F` [Cpd 170, N-(5-chloro-2-methyl-6-(1H-pyrazol-1-yl)pyridin-3-yl)-1-(1-oxo-1,2-dihydroisoquinolin-5-yl)-5-(trifluoromethyl)-1H-pyrazole-4-carboxamide], the 50% inhibitory concentration (IC50) in assay [1] amounted to 112 nM; in assay [2] it was 339 nM; in assay [3] it was 135 nM.
